Data on six compounds can be found in patent publication US20190225683A1, “TARGETING OXAZOLE STRUCTURES FOR THERAPY AGAINST INFLAMMATORY DISEASES” (THE BRIGHAM AND WOMEN'S HOSPITAL, INC., priority 2015, published 2019).

Entries after “also recorded” stand apart in the source; their conditions may differ.

One data set relates to MODE-K cells. Nature of the data set: MODE-K cells stimulated with compounds, Mttp and Cxcl16 transcripts by qPCR. The following applies: for Cxcl16 transcript expression / Mttp transcript expression: MODE-K cells, 48 hours, qPCR normalized to β-actin; for Transcriptional pattern of NKT signature genes (Mttp, Cxcl16): MODE-K epithelial cells. The data set is classed as cell-based, mouse. The procedure: Mode-K cells were stimulated for 48 hours with the listed compounds and MUT) (2A) and Cxcl16 (2B) transcript express was quantified by qPCR normalized to β-actin, a housekeeping gene. Graph color coded to indicate control, OxC, and ITE compounds. […]
Kinetic transcript profiles of Mttp, Cxcl16, CD1d, and Hsp110 are assessed by qPCR normalizing transcript abundance to house keeping gene, (3-actin. Protein expression is quantified by immunoblot (MTTP, HSP110) or ELISA (CXCL16). CD1d protein expression is monitored using monoclonal antibodies conjugated to phycoerythrin and fluorescein isothyocynate to assess CD1d trafficking to and from the cell surface.[89]Stimulatory ligands are washed out prior to administration of αGC, and conditioned cells are co-cultured over night with 4 classes of invariant (DN32.D3, 24.7, 24.8) or non-variant (14S.6) to assess αGC specific and autoreactive responses to epithelial and myeloid cell lipid presentation. Production of IL-10, IL-4, IL-13, IFNγ response to epithelial and myeloid, and the source of cytokine production (APC or NKT) are determined using gluteraldehyde fixation. Primary iNKT cells are isolated from colonic lamina propria or peripheral organs (liver, spleen, mesenteric lymph node) and purified by FACS (BD ARIA-II Sorter) using monoclonal antibodies against CD45, TCRI3, CD3E, and CD1d:αGC loaded tetramer (APC conjugated) and exclusion of unloaded CD1d tetramer (PE). […] Strand specific libraries are generated using 500 ng RNA input and subject to paired-end 100 bp read sequencing using a HISEQ2000 at the Dana Farber Cancer Institute. Sequence reads are aligned to the mouse mm10 reference genome using Tophat alignments restricted to uniquely mapping reads with <2 possible mismatches permitted. […] Candidate transcripts arevalidated in primary IECs (EpCAM+ CD45−) or mucosal APCs by qPCR.

In a further data set the test system is 24.7 NKT hybridoma. Kind of data set: Compound-conditioned MODE-K cells incubated with alpha-galactosylceramide, co-cultured with 24.7 iNKT hybridoma, IL-10 by ELISA. The class given is cell-based, mouse. Conditions: MODE-K conditioned with compound or lysate, αGC presented on CD1d. The procedure: FIGS. 3A-3B depict in accordance with an embodiment of the invention, (3A) MODE-K cells transfected with control- or AhR-targeted siRNA. After 48 hours, these cells were stimulated with the compounds indicated for 48 hours. Cells were washed and incubated with alpha-galactosylceramide and subsequently co-cultured with the 24.7 NKT hybridoma. IL-10 production was measured by ELISA. (3B) Hepatocytes from WT or AhR-deficient mice were stimulated as in (3A).
FIGS. 7A-7B depict in accordance with an embodiment of the invention, (7A) structure of the OxC compound, B17 microcin. […] Cells were incubated with aGC and co-cultured with24.7 iNKT hybridoma and IL-10 production was measured. “[…]”, “G2QG2”, “GGNG”, and “GSHI” are disclosed as SEQ ID NO: 3, SEQ ID NO: 6, SEQ ID NO: 5, and SEQ ID NO: 2, respectively.
Kinetic transcript profiles of Mttp, Cxcl16, CD1d, and Hsp110 are assessed by qPCR normalizing transcript abundance to house keeping gene, (3-actin. Protein expression is quantified by immunoblot (MTTP, HSP110) or ELISA (CXCL16). CD1d protein expression is monitored using monoclonal antibodies conjugated to phycoerythrin and fluorescein isothyocynate to assess CD1d trafficking to and from the cell surface.[89]Stimulatory ligands are washed out prior to administration of αGC, and conditioned cells are co-cultured over night with 4 classes of invariant (DN32.D3, 24.7, 24.8) or non-variant (14S.6) to assess αGC specific and autoreactive responses to epithelial and myeloid cell lipid presentation. Production of IL-10, IL-4, IL-13, IFNγ response to epithelial and myeloid, and the source of cytokine production (APC or NKT) are determined using gluteraldehyde fixation. […] Strand specific libraries are generated using 500 ng RNA input and subject to paired-end 100 bp read sequencing using a HISEQ2000 at the Dana Farber Cancer Institute. Sequence reads are aligned to the mouse mm10 reference genome using Tophat alignments restricted to uniquely mapping reads with <2 possible mismatches permitted. […]

Data set [1] is described as follows: Colitis model: skin pre-sensitization, then intra-rectal administration. The data set is classed as in vivo, mice. On the procedure: Colitis scores were blindly performed by a pathologist.
Distal colon explants were cultured overnight and IL-10 (6A) and IL-13 (6B) production was measured by ELISA.
Changes in weight are monitored and colons harvested on day 3 and day 5 post-rectal challenge for histopathological analysis. Distalhyperemia in the mucosa, cellular infiltration in the lamina propria, elongation of colonic mucosa, epithelial erosion. The number of conventional T cells, NKT cells and mucosal APC subsets are enumerated by established flow cytometry protocols.[11] In addition, kinetic cytokine profiles are analyzed to verify that OxC colitis phenocopies molecular signatures associated with oxazolone colitis. […] [8] In addition, colonic IECs and lamina propria mononuclear cells are sorted by FACS and analyzed for Mttp and Cxcl16 expression by qPCR.

The test system of data set [2] is AhR. Nature of the data set: AhR targets Cyp1a1 and IDO1 by qPCR in MODE-K cells with control or AhR-targeted siRNA. The data set is classed as cell-based, mouse. Conditions: MODE-K cells or primary hepatocytes. On the procedure:
FIGS. 8A-8C depict in accordance with an embodiment of the invention, MODE-K transfected with control or AhR-targeted siRNA. After 48 hours, MODE-K cells were stimulated with the indicated compounds. Cyp1a1 (8A) or IDO1 (8B, 8C) were quantified by qPCR.
Stimulation of MODE-K cells with OxC compounds but not control compounds differentially regulates two well characterized AhR targets: Cyp1a1,[68] and IDO1. [FIG. 8] Specific siRNA mediated knockdown of the AhR in MODE-K cells diminished expression of both AhR targets in response to OxC stimulation.
(In qPCR the cycle at which signal appears reflects the starting amount.)

The subject of the next data set is AhR reporter. Kind of data set: AhR reporter assay. Conditions: FIG. 14. The class given is cell-based. In general terms: In a reporter assay the amount or activity of a reporter protein is the signal.
The test system of a further data set is NFkB reporter. Kind of data set: NFkB reporter assay. The data set is classed as cell-based. Conditions: FIG. 14.
The test system of data set [3] is AhR response elements (XRE). Conditions: cited from earlier work.
In data set [4] the target is T1, AhR (Homo sapiens, UniProt P35869).
T1 construct: endogenous in cells; host or cells: HepG2
T1 sequence (P35869 11-848): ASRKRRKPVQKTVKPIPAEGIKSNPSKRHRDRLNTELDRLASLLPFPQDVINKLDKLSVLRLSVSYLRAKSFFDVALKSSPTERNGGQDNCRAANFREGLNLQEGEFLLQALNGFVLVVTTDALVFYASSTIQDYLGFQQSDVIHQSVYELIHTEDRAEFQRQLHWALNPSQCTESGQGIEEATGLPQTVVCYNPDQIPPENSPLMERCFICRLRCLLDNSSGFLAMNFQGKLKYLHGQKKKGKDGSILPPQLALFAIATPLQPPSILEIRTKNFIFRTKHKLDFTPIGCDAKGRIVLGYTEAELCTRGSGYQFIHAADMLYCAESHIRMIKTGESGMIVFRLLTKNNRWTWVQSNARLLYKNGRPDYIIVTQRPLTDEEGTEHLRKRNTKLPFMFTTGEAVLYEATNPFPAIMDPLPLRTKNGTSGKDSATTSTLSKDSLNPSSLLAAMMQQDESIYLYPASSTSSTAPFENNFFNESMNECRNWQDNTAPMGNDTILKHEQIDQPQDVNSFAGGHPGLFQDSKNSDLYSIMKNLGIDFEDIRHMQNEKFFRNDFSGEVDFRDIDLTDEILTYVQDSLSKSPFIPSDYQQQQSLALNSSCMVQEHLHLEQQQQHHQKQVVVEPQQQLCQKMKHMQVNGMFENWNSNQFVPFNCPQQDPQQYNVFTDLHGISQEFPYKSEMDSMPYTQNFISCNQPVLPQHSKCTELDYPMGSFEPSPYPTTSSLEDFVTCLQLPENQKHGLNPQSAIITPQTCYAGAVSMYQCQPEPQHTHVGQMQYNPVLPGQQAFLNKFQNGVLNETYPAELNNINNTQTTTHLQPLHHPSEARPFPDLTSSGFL
Conditions: hepatocyte reporter assay; cited from earlier work.

In data set [5] the target is T2, aryl hydrocarbon receptor (AhR) (Homo sapiens, UniProt P35869).
T2 sequence (P35869 11-848): T1 sequence (P35869 11-848)
Conditions: previous studies; cited from earlier work.

The mark [6] stands for this setting: compared to vehicle treated control animals.

Take `CCO/C=C1\N=C(c2ccccc2)OC1=O` [oxazolone, 4-ethoxymethylene-2-phenyl-oxazol-5-one]: in the data set with MODE-K cells, the Cxcl16 transcript expression entry is listed as “induce CXCL16”; the Mttp transcript expression result was “suppress Mttp”; the “Transcriptional pattern of NKT signature genes (Mttp, Cxcl16)” value is listed as “modulates specific gene targets involved in NKT cell biology”. In the data set with 24.7 NKT hybridoma, the “IL-10 production by iNKT cells co-cultured with conditioned cells” value (“IL-10 production” for short) is reported as “diminished; also recorded: inhibited IL-10 production”. For the same compound, the “Oxazolone colitis in Vil-Cre+ X AhR fl/fl mice” value in data set [1] (3% presensitization, 1% intra-rectal, epithelial AhR deficiency) is given as “protected against oxazolone colitis”. Also, the “Expression of AhR targets Cyp1a1 and IDO1” value in the data set on AhR [2] is reported as “modulates well-characterized AhR targets”. Further, the AhR reporter activation entry in the data set with AhR reporter is given as “activate an AhR reporter”. Further, the NFkB reporter activation entry in the data set with NFkB reporter is “not an NFkB reporter”.

Consider `COC(=O)c1csc(C(=O)c2c[nH]c3ccccc23)n1` [ITE, 2-(1H-Indol-3-carbonyl)-4-thiazolecarboxylic acid methyl ester], for which the “Concentration activating XRE” value in data set [3] is “picomolar concentrations”.

Regarding 1-methyl-pyrroline [MP], in the data set with MODE-K cells, the Cxcl16 transcript expression result is on record as “loss of these biological effects” and the Mttp transcript expression result is “loss of these biological effects”.

Consider `CC1=NC(C)OC1C` (stereo not shown) [TMO, 2,4,5-trimethyl-2,5-dihydro-1,3-oxazole], for which, in the data set on MODE-K cells, the Cxcl16 transcript expression result is recorded as “induce CXCL16” and the Mttp transcript expression entry was “suppress Mttp”. In the data set with 24.7 NKT hybridoma, the “IL-10 production” value is “diminished; also recorded: inhibited IL-10 production”. In [1] (setting [6]), the “Colitis phenotype in vivo” value is recorded as “phenocopies the inflammation associated with oxazolone”; the Colon shortening entry is “colon shortening”; the “Expression of Th2 cytokines” value was “expression of Th2 cytokines characteristic of ulcerative colitis”; the “Histopathology, blind scoring by a pathologist” value was “histopathology (based on blind scoring by a pathologist)”. Besides, in data set [1] (setting [6]), the Weight loss result is reported as “increased weight loss”. Also, the AhR reporter activation entry with AhR reporter is recorded as “activate an AhR reporter”. The NFkB reporter activation entry with NFkB reporter is recorded as “not an NFkB reporter”.

For the compound `CC1CC(C)C(C)C1` (stereo not shown) [TMC, 1,2,4-trimethylcyclopentane], in the data set with MODE-K cells, the Cxcl16 transcript expression entry is recorded as “loss of these biological effects” and the Mttp transcript expression result is on record as “loss of these biological effects”.

Regarding `C=CC1(C)OC(=O)N(c2cc(Cl)cc(Cl)c2)C1=O` (stereo not shown) [Vinclozolin, vinclozolin], in the data set on MODE-K cells, the “Transcriptional pattern of NKT signature genes (Mttp, Cxcl16)” value was “demonstrates a similar transcriptional pattern”. Further, the “Cellular responses (transcriptional changes and NKT responses)” value with MODE-K cells (preliminary experiments, FIGS. 2, 3) is “elicit similar cellular responses as oxazolone and TMO”. For the same compound, the “IL-10 production” value with 24.7 NKT hybridoma is given as “exerts modulatory effects on iNKT cell responses similar oxazolone”. The “AhR activation in HepG2” value at AhR [4] is “AhR activator”. For the same compound, the AhR ligand status result in [5] is listed as “ligand for the aryl hydrocarbon receptor (AhR)”.
